# Reference: patent US10882869B2, “Condensed heterocyclic compounds and pesticides” (NISSAN CHEMICAL CORPORATION, priority 2015, dated 2021)
# Experiments:
# Type in all cases: in vivo
# Spodoptera litura = assay: Insecticidal test on Spodoptera litura (cabbage leaves soaked); conditions: 144 h, 500 ppm solution, 3rd-instar larvae, 6 days after, 25° C.
# Experimental: (§1) Leaves of cabbage were soaked in the solutions for about 10 seconds. After the soaking, the leaves were dried in air and placed in dishes. In each dish, five 3rd-instar larvae of Spodoptera litura were released, and the dishes were covered with lids and placed in an incubator at 25° C. 6 Days after, dead insects in the dishes were counted, and the mortality was calculated by using the same equation as in Test Example 1. The test was carried out in duplicate.
# Myzus persicae = assay: Insecticidal test on Myzus persicae (cabbage leaf spray); conditions: 144 h, 500 ppm solution sprayed (2.5 mg/cm^2), apterous adults on cabbage leaves, 6 days after, 25° C.
# Experimental: Wet absorbent cotton was laid on glass dishes having an inner diameter of 3 cm, and covered with leaves of cabbage cut into circles of the same diameter, and 4 apterous adults of Myzus persicae were released. […] The solutions were sprayed from a rotary spray tower (2.5 mg/cm^2), and the dishes were covered with lids and placed in an incubator at 25° C. 6 Days after, dead insects were counted, and the mortality was calculated by using the same equation as in Test Example 1. The test was carried out in duplicate.
# Ctenocephalides felis = assay: Test on the effect on Ctenocephalides felis (thin film in glass container); conditions: 96 h, application dose 10 μg/cm^2, adults, 4 days after release, 25° C.
# Experimental: 350 μl of the solutions were applied to the bottoms and the side walls of glass containers with an inner wall surface area of 35 cm^2, and acetone was volatilized to prepare thin films of the compounds on the inner walls of the glass containers. Since the inner wall surface area of each glass container was 35 cm^2, the application dose was 10 μg/cm^2.
# To each glass container, five adults (male and female) of Ctenocephalides felis were released, and the containers were covered with lids and placed in an incubator at 25° C. 4 Days after the release of the fleas, dead fleas were counted, and the mortality was calculated by using the same equation as in Test Example 1.
# Plutella xylostella = assay: Insecticidal test on Plutella xylostella (cabbage leaves soaked); conditions: 144 h, 500 ppm solution, 3rd-instar larvae, 6 days after, 25° C.
# Experimental: as §1, with “Plutella xylostella” for “Spodoptera litura”
# Nilaparvata lugens [1] = assay: Insecticidal test on Nilaparvata lugens (rice sheaths soaked); conditions: 144 h, 500 ppm solution, 3rd-instar larvae, 6 days after, 25° C.
# Experimental: Rice sheaths were soaked in the solutions for about 10 seconds. After the soaking, the rice sheaths were dried in air and put in test tubes. In each tube, five 3rd-instar larvae of Nilaparvata lugens were released, and the tubes were capped with sponge and placed in an incubator at 25° C. 6 Days after, dead insects in the test tubes were counted, and the mortality (%) (the number of dead insects÷the number of released insects×100) was calculated. The test was carried out in duplicate.
# Nilaparvata lugens [2] = assay: Systemic insecticidal test on Nilaparvata lugens (rice seedling root dip); conditions: 20 ppm solution, rice seedling roots dipped 7 days, 3rd-instar larvae, 6 days after release, 25° C.
# Experimental: 7 Days after, the rice seedlings were picked and put in test tubes, and in each tube, five 3rd-instar larvae of Nilaparvata lugens were released, and the tubes were capped with sponge and placed in an incubator at 25° C. 6 Days after the release of the insects, dead insects were counted, and the mortality (%) (the number of dead insects÷the number of released insects×100) was calculated. The test was carried out in duplicate.
smiles,measurement,setting,value
"CCS(=O)(=O)c1c(-c2nc3cc(C(F)(F)C(F)(F)F)ncn3c2Br)nc2ccc(C(F)(F)F)cn12 [1-3-010a, 3-bromo-2-[3-(ethylsulfonyl)-6-(trifluoromethyl)imidazo[1,2-a]pyridin-2-yl]-7-(perfluoroethyl)imidazo[1,2-c]pyrimidine]",mortality at 500 ppm,Spodoptera litura,≥ 90%
same,mortality at 500 ppm,Myzus persicae,≥ 90%
same,mortality at 10 µg/cm2,Ctenocephalides felis,≥ 50%
"CCS(=O)(=O)c1c(-c2nc3cc(SC(F)(F)F)cnc3n2C)nc2cc(C(F)(F)F)ccn12 [1-1-027a, 2-[3-(ethylsulfonyl)-7-(trifluoromethyl)imidazo[1,2-a]pyridin-2-yl]-3-methyl-6-((trifluoromethyl)thio)-3H-imidazo[4,5-b]pyridine]",mortality at 500 ppm,Plutella xylostella,≥ 90%
same,mortality at 500 ppm,Spodoptera litura,≥ 90%
same,mortality at 500 ppm,Myzus persicae,≥ 90%
same,mortality at 10 µg/cm2,Ctenocephalides felis,≥ 50%
"CCS(=O)(=O)c1c(-c2nc3cc([S+]([O-])C(F)(F)F)ccc3o2)nc2ccc(C(F)(F)F)cn12 (stereo not drawn) [1-2-002a, 2-[3-(ethylsulfonyl)-6-(trifluoromethyl)imidazo[1,2-a]pyridin-2-yl]-5-[(trifluoromethyl)sulfinyl]benz[d]oxazole]",mortality at 500 ppm,Nilaparvata lugens [1],≥ 90%
same,mortality at 20 ppm,Nilaparvata lugens [2],≥ 90%
same,mortality at 500 ppm,Plutella xylostella,≥ 90%
same,mortality at 500 ppm,Spodoptera litura,≥ 90%
same,mortality at 500 ppm,Myzus persicae,≥ 90%
"CCSc1c(-c2nc3cc(C(F)(F)F)nc(C)c3n2C)nc2ccc(C(F)(F)F)cn12 [1-8-003b, 2-[3-(ethylthio)-6-(trifluoromethyl)imidazo[1,2-a]pyridin-2-yl]-3,4-dimethyl-6-(trifluoromethyl)-3H-imidazo[4,5-c]pyridine]",mortality at 500 ppm,Plutella xylostella,≥ 90%
same,mortality at 500 ppm,Spodoptera litura,≥ 90%
"CCS(=O)(=O)c1c(-c2nc3cc(C(F)(F)F)cnc3n2C)nc2sc(C(F)(F)F)cn12 [2-1-001a, 5-(ethylsulfonyl)-6-[3-methyl-6-(trifluoromethyl)-3H-imidazo[4,5-b]pyridin-2-yl]-2-(trifluoromethyl)imidazo[2,1-b]thiazole]",mortality at 500 ppm,Nilaparvata lugens [1],≥ 90%
same,mortality at 500 ppm,Plutella xylostella,≥ 90%
same,mortality at 500 ppm,Spodoptera litura,≥ 90%
same,mortality at 500 ppm,Myzus persicae,≥ 90%
same,mortality at 10 µg/cm2,Ctenocephalides felis,≥ 50%
"CCS(=O)(=O)c1c(-c2nc3cc(S(=O)(=O)C(F)(F)F)ccc3o2)nc2ccc(C(F)(F)F)cn12 [1-2-001a, 2-[3-(ethylsulfonyl)-6-(trifluoromethyl)imidazo[1,2-a]pyridin-2-yl]-5-[(trifluoromethyl)sulfonyl]benz[d]oxazole]",mortality at 500 ppm,Nilaparvata lugens [1],≥ 90%
same,mortality at 500 ppm,Plutella xylostella,≥ 90%
same,mortality at 500 ppm,Spodoptera litura,≥ 90%
same,mortality at 500 ppm,Myzus persicae,≥ 90%
same,mortality at 10 µg/cm2,Ctenocephalides felis,≥ 50%
"CCSc1c(-n2cc3cnc(C(F)(F)F)cc3n2)nc2cc(C(F)(F)F)ccn12 [1-11-001b, 2-[3-(ethylthio)-7-(trifluoromethyl)imidazo[1,2-a]pyridin-2-yl]-6-(trifluoromethyl)-2H-pyrazolo[4,3-c]pyridine]",mortality at 500 ppm,Nilaparvata lugens [1],≥ 90%
same,mortality at 500 ppm,Plutella xylostella,≥ 90%
same,mortality at 500 ppm,Spodoptera litura,≥ 90%
same,mortality at 500 ppm,Myzus persicae,≥ 90%
same,mortality at 10 µg/cm2,Ctenocephalides felis,≥ 50%
"CCS(=O)(=O)c1c(-c2cn3cc(C(F)(F)F)ncc3n2)nc2ccc(C(F)(F)F)cn12 [1-6-002a, 2-[3-(ethylsulfonyl)-6-(trifluoromethyl)imidazo[1,2-a]pyridin-2-yl]-6-(trifluoromethyl)imidazo[1,2-a]pyrazine]",mortality at 500 ppm,Plutella xylostella,≥ 90%
same,mortality at 500 ppm,Spodoptera litura,≥ 90%
same,mortality at 500 ppm,Myzus persicae,≥ 90%
"CCSc1c(-n2cc3ncc(C(F)(F)F)cc3n2)nc2cc(C(F)(F)F)ccn12 [1-10-002b, 2-[3-(ethylthio)-7-(trifluoromethyl)imidazo[1,2-a]pyridin-2-yl]-6-(trifluoromethyl)-2H-pyrazolo[4,3-b]pyridine]",mortality at 500 ppm,Plutella xylostella,≥ 90%
same,mortality at 500 ppm,Spodoptera litura,≥ 90%
same,mortality at 500 ppm,Myzus persicae,≥ 90%
same,mortality at 10 µg/cm2,Ctenocephalides felis,≥ 50%
"CCSc1c(-c2nc3ccc(C(F)(F)F)nc3n2C)nc2cc(C(F)(F)F)ccn12 [1-1-030b, 2-[3-(ethylthio)-7-(trifluoromethyl)imidazo[1,2-a]pyridin-2-yl]-3-methyl-5-(trifluoromethyl)-3H-imidazo[4,5-b]pyridine]",mortality at 500 ppm,Plutella xylostella,≥ 90%
same,mortality at 500 ppm,Spodoptera litura,≥ 90%
"CCSc1c(-c2nc3cc(C(F)(F)F)cnc3n2C)nc2c(C(F)(F)F)cc(I)cn12 [1-1-066b, 2-[3-(ethylthio)-6-iodo-8-(trifluoromethyl)imidazo[1,2-a]pyridin-2-yl]-3-methyl-6-(trifluoromethyl)-3H-imidazo[4,5-b]pyridine]",mortality at 10 µg/cm2,Ctenocephalides felis,≥ 50%
